According to paper PMC7464027, “Design of Curcumin and Flavonoid Derivatives with Acetylcholinesterase and Beta-Secretase Inhibitory Activities Using in Silico Approaches” (Molecules, 2020):

What was measured:
beta-secretase (BACE-1) = target: T1, beta-secretase (BACE-1) (Homo sapiens, UniProt P56817); experiment: fluorescent BACE-1 activity detection kit (Sigma-Aldrich); format: biochemical
T1 construct: gene BACE1

[1] = target: Acetylcholinesterase (AChE) (Electrophorus electricus, UniProt O42275); experiment: Ellman's assay with electric eel AChE; format: biochemical
Acetylcholinesterase (AChE), sequence (O42275 24-633): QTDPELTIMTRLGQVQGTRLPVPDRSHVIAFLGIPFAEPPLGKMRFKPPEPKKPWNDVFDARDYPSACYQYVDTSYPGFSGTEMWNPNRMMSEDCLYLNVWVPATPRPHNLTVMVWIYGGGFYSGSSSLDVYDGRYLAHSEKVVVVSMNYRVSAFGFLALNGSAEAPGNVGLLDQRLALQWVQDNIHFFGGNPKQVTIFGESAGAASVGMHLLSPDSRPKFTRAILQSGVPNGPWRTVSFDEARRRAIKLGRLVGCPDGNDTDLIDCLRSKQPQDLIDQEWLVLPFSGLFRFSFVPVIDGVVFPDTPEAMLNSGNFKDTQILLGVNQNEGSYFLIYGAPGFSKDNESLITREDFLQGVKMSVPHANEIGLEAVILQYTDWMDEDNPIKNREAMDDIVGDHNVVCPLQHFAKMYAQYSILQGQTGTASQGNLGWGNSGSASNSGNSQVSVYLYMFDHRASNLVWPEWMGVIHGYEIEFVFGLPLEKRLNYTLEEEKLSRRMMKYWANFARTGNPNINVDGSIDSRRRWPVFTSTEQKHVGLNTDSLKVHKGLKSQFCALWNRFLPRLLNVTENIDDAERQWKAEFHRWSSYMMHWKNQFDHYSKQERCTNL

T1 sequence (P56817 46-457): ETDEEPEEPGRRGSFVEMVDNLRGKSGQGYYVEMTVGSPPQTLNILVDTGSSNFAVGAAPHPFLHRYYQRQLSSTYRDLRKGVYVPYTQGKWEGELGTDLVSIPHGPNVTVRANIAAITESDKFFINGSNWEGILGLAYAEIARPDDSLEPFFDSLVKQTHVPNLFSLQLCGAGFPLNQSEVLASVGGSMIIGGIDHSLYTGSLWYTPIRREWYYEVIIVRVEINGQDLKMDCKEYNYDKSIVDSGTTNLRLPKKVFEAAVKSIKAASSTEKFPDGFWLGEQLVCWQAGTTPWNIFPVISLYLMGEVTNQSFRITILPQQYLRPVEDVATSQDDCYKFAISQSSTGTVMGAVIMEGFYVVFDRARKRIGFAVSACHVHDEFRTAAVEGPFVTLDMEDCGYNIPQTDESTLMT

## CCOc1cc(C(=O)O)c(C(=O)CCc2ccccc2)c(N(C)C)c1 [F9, 3-(dimethylamino)-5-ethoxy-2-(3-phenylpropanoyl)benzoic acid]
beta-secretase (BACE-1)
  IC50: 1.85 ± 0.33 µM
[1]
  IC50: 30 ± 1.24 µM

## CN(C)c1cccc(CCC(=O)c2cc(O)ccc2N(C)C)c1 [F24, 1-(2-(dimethylamino)-5-hydroxyphenyl)-3-(3-(dimethylamino)phenyl)propan-1-one]
beta-secretase (BACE-1)
  IC50: 3.52 ± 0.77 µM
[1]
  IC50: 80.5 ± 3.07 µM
